Legend:
[1] = tested on: human prostate cancer xenografts; settings: daily intraperitoneal administration of ATP (25 mM); cited from earlier work
[2] = tested on: tumor; settings: intraperitoneal injection of ATP (50 mM); cited from earlier work
[3] = tested on: B16-F10 melanoma cells; test: B16-F10 cell growth / proliferation monitoring; format: cell-based; settings: eATP, 2 mM, compared with AuNC@ATP 2.25 μM
[4] = tested on: human tumor cells; settings: cited from earlier work

## Nc1ncnc2c1ncn2[C@@H]1O[C@H](COP(=O)(O)OP(=O)(O)OP(=O)(O)O)[C@@H](O)[C@H]1O [free ATP, Adenosine triphosphate]
[1]
  tumor regression: significant tumor regression
[2]
  tumor size: effectively reduced tumor size
[3]
  inhibiting B16-F10 cell proliferation: does not achieve the same level of effectiveness
[4]
  growth of human tumor cells (cell cycle): arrest of growth in the S phase

## Nc1ncnc2c1ncn2[C@@H]1O[C@H](COP(=O)(O)OP(=O)(O)O)[C@@H](O)[C@H]1O [ADP]
[4]
  growth of human tumor cells (cell cycle): arrest of growth in the S phase

— patent publication US20250352663A1 (priority 2022, published 2025)
